Experimental data as given in PMC3166236 (Journal of medicinal chemistry, 2011).

Assays:
in vitro = settings: human
hPEPT1 = hPEPT1 expressed in the model system; cited from earlier work
[1] = Enzymatic stability in rat intestinal homogenate pH 6.5 at 37 °C; settings: Sprague-Dawley, pH 6.5, Half-lives, rat intestinal homogenate pH 6.5, 37 °C
[2] = in vivo murine model; relative to 2 or its cyclic form 4; cited from earlier work
[3] = test system: Vaccinia virus strain Copenhagen; assay: microbe, parasite or virus in culture; format: cell-based; settings: Orthopoxvirus vaccinia, read-out: Antiviral Activity IC50 Vaccinia
Towne strain of HCMV = assay: microbe, parasite or virus in culture; format: cell-based, human cytomegalovirus; settings: Human betaherpesvirus 5, read-out: Antiviral Activity IC50 HCMV
KB cells = settings: human
[4] = parent (S)-HPMPA; cited from earlier work
[5] = t1/2 Intestinal Homogenate pH 6.5, Rp isomer
[6] = t1/2 Intestinal Homogenate pH 6.5, Sp isomer

In the case of `CC(C)CNC(=O)[C@@H](N)Cc1ccc(OP(=O)(O)CO[C@H](CO)Cn2cnc3c(N)ncnc32)cc1` [Compound 28, O-[([[(2S)-1-(6-Amino-9H-purin-9-yl)-3-hydroxypropan-2-yl]oxy]methyl)(hydroxy)phosphoryl]-N-(2-methylpropyl)-(L)-tyrosinamide], the IC50 (in vitro) is reported as > 100 µM.

In the case of `COC(=O)[C@H](COP1(=O)CO[C@@H](Cn2ccc(N)nc2=O)CO1)NC(=O)[C@@H](N)C(C)C` (stereo partly drawn) [Val-Ser-OMe cHPMPC], the “binding and transport by hPEPT1” value (hPEPT1) is given as “tightly bound but not transported”.

With `Nc1ncnc2c1ncn2C[C@H]1COP(=O)(O)CO1` [Compound 3, (5S)-5-[(6-Amino-9H-purin-9-yl)methyl]-1,4,2-dioxaphosphinan-2-ol 2-oxide, reference compound] the IC50 (in vitro) was > 100 µM.

In the case of `CC(C)OC(=O)[C@@H](N)Cc1ccc(OP2(=O)CO[C@@H](Cn3ccc(N)nc3=O)CO2)cc1` (mixture of isomers) [Compound 8, Isopropyl O-[(5S)-5-[(4-amino-2-oxopyrimidin-1(2H)-yl)methyl]-2-oxido-1,4,2-dioxaphosphinan-2-yl]-(L)-tyrosinate], the IC50 (in vitro) is reported as > 100 µM, the half-life at 0.5 mg/ml [1, 5] is reported as < 0.5 h and the half-life at 0.5 mg/ml [1, 6] is reported as < 0.5 h.

With `COC(=O)[C@@H](N)Cc1ccc(OP2(=O)CO[C@@H](Cn3ccc(N)nc3=O)CO2)cc1` (stereo partly drawn) [Compound 6, Methyl O-[(5S)-5-[(4-amino-2-oxopyrimidin-1(2H)-yl)methyl]-2-oxido-1,4,2-dioxaphosphinan-2-yl]-(L)-tyrosinate] the IC50 (in vitro) was > 100 µM, the half-life at 0.5 mg/ml [1, 5] was < 0.5 h and the half-life at 0.5 mg/ml [1, 6] was < 0.5 h.

For `COC(=O)[C@H](Cc1ccc(OP2(=O)CO[C@@H](Cn3cnc4c(N)ncnc43)CO2)cc1)NC(=O)[C@@H](N)C(C)C` (stereo partly drawn) [Compound 13, Methyl (L)-valyl-O-[(5S)-5-[(6-amino-9H-purin-9-yl)methyl]-2-oxido-1,4,2-dioxaphosphinan-2-yl]-(L)-tyrosinate], the IC50 (in vitro) was > 100 µM, the half-life at 0.5 mg/ml [1, 5] was < 0.5 h and the half-life at 0.5 mg/ml [1, 6] was < 0.5 h.

With `COC(=O)[C@H](N)Cc1ccc(OP2(=O)CO[C@@H](Cn3ccc(N)nc3=O)CO2)cc1` (stereo partly drawn) [Compound 7, Methyl O-[(5S)-5-[(4-amino-2-oxopyrimidin-1(2H)-yl)methyl]-2-oxido-1,4,2-dioxaphosphinan-2-yl]-(D)-tyrosinate] the IC50 (in vitro) was > 100 µM, the half-life at 0.5 mg/ml [1, 5] was 3.5 h and the half-life at 0.5 mg/ml [1, 6] was 1.2 h.

In the case of `COC(=O)C(COP1(=O)COC(Cn2ccc(N)nc2=O)CO1)NC(=O)C(N)C(C)C` (stereo not drawn) [(L)-Val-(L)-Ser-OMe cHPMPC], the “increase in oral bioavailability of total 2 species” value [2] is given as “eight-fold”.

With `CC(C)(C)NC(=O)[C@H](N)Cc1ccc(OP2(=O)CO[C@@H](Cn3ccc(N)nc3=O)CO2)cc1` (stereo partly drawn) [Compound 9, O-[(5S)-5-[(4-Amino-2-oxopyrimidin-1(2H)-yl)methyl]-2-oxido-1,4,2-dioxaphosphinan-2-yl]-N-tert-butyl-(D)-tyrosinamide] the IC50 (in vitro) was > 100 µM, the half-life at 0.5 mg/ml [1, 5] was 28.9 h and the half-life at 0.5 mg/ml [1, 6] was 3.85 h.

With `Nc1ccn(C[C@@H](CO)OCP(=O)(O)O)c(=O)n1` [Compound 2, 1-(S)-[3-hydroxy-2-(phosphonomethoxy)propyl]cytosine, reference compound] the IC50 (in vitro) was > 100 µM and the IC50 [3] was 20 µM.

In the case of `CC(C)CNC(=O)[C@@H](N)Cc1ccc(OP2(=O)CO[C@@H](Cn3cnc4c(N)ncnc43)CO2)cc1` (mixture of isomers) [Compound 11, O-[(5S)-5-[(6-Amino-9H-purin-9-yl)methyl]-2-oxido-1,4,2-dioxaphosphinan-2-yl]-N-(2-methylpropyl)-(L)-tyrosinamide], the IC50 (in vitro) is reported as > 100 µM, the half-life at 0.5 mg/ml [1, 5] is reported as 12.8 h and the half-life at 0.5 mg/ml [1, 6] is reported as 1.9 h. For the same molecule, the half-life (Stability in rat plasma; Rp diastereomer) was 3.55 h and the half-life (Stability in rat plasma; Sp diastereomer) was 0.383 h.

With `COC(=O)[C@@H](N)Cc1ccc(OP2(=O)CO[C@@H](Cn3cnc4c(N)ncnc43)CO2)cc1` (stereo partly drawn) [Compound 10, Methyl O-[(5S)-5-[(6-amino-9H-purin-9-yl)methyl]-2-oxido-1,4,2-dioxaphosphinan-2-yl]-(L)-tyrosinate] the IC50 (in vitro) was > 100 µM, the half-life at 0.5 mg/ml [1, 5] was < 0.5 h and the half-life at 0.5 mg/ml [1, 6] was < 0.5 h.

For `Nc1ccn(C[C@H]2COP(=O)(O)CO2)c(=O)n1` [Compound 4], the IC50 (in vitro) was > 100 µM, the IC50 (Towne strain of HCMV) was 0.25 µM and the IC50 [3] was 40 µM.

With `CC(C)CNC(=O)[C@@H](N)Cc1ccc(OP2(=O)CO[C@@H](Cn3cnc4c(N)ncnc43)CO2)cc1` (mixture of isomers) [11´, O-[(5S)-5-[(6-Amino-9H-purin-9-yl)methyl]-2-oxido-1,4,2-dioxaphosphinan-2-yl]-N-(2-methylpropyl)-(L)-tyrosinamide] the IC50 (KB cells) was > 100 µM.

For `Nc1ncnc2c1ncn2C[C@@H](CO)OCP(=O)(O)O` [Compound 1, (S)-9-[3-hydroxy-2-(phosphonomethoxy)propyl]adenine, reference compound], the IC50 (in vitro) is given as > 100 µM and the “oral bioavailability of the parent compound” value [4] is given as < 5%.

In the case of `CC(C)OC(=O)[C@@H](N)Cc1ccc(OP2(=O)CO[C@@H](Cn3ccc(N)nc3=O)CO2)cc1` (mixture of isomers) [8´, Isopropyl O-[(5S)-5-[(4-amino-2-oxopyrimidin-1(2H)-yl)methyl]-2-oxido-1,4,2-dioxaphosphinan-2-yl]-(L)-tyrosinate], the IC50 (KB cells) is reported as > 100 µM.
